Structures are written as SMILES.

For 9 molecules, bioavailability and IC50 results are on record in ChEMBL document CHEMBL5385841, “Recent advances in gout drugs” (Eur J Med Chem, 2023).

Tested on in the first data set: not listed separately
Put plainly: Oral bioavailability in rat relative to urinary excretion. Conditions: urine. It is filed as ADME, organism-based.
By bioavailability is commonly meant the share of a dose that reaches the circulation, judged against a reference dose that is usually intravenous. A higher bioavailability goes with much systemic uptake. `O=C(O)[C@H]1O[C@@H](Oc2c(Cl)cc(C(=O)N3CS(=O)(=O)c4ccccc43)cc2Cl)[C@H](O)[C@@H](O)[C@@H]1O`: the bioavailability was determined as 44.3%.
In turn, `O=C(c1cc(Cl)c(OS(=O)(=O)O)c(Cl)c1)N1CS(=O)(=O)c2ccccc21` had a bioavailability of 20%.

For another data set, the target named is Xanthine dehydrogenase/oxidase (Homo sapiens, UniProt P47989). Put plainly: Inhibition of XO (unknown origin).
Xanthine dehydrogenase/oxidase, sequence (P47989 whole entry): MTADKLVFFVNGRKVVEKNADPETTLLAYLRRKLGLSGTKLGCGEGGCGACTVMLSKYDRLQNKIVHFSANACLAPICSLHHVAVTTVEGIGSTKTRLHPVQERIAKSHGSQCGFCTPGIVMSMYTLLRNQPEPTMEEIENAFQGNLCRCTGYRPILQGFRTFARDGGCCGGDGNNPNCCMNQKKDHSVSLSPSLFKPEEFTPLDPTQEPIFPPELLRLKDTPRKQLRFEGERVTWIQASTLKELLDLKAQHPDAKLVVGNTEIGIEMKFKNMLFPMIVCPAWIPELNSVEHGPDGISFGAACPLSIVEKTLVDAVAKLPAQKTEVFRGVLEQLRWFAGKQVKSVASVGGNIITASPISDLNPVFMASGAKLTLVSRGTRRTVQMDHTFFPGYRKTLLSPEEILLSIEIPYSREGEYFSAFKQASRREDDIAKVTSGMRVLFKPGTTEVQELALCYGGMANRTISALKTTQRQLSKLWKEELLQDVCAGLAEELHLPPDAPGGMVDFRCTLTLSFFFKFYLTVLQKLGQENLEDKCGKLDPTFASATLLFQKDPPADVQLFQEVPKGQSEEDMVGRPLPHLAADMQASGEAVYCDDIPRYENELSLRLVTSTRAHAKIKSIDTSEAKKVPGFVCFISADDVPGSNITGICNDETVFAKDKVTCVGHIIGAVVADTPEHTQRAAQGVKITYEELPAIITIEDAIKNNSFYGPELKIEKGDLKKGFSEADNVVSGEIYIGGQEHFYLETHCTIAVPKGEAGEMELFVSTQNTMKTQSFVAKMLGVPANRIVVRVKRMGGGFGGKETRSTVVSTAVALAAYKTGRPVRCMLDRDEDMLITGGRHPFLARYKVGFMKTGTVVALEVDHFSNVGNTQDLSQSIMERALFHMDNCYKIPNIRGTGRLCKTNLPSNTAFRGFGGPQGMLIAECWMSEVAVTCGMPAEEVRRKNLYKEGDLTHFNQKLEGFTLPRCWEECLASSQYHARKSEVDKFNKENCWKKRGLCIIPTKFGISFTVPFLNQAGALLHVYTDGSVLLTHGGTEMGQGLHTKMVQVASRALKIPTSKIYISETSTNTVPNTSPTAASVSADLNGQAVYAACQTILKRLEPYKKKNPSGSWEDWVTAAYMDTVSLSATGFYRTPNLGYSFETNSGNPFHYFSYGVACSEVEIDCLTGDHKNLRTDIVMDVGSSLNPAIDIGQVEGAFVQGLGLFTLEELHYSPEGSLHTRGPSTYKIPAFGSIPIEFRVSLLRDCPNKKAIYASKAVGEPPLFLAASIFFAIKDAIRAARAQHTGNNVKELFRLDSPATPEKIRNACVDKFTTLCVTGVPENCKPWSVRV
Conditions: not given
As usually defined, the IC50 is the midpoint of a concentration-inhibition curve. As for `CC(=O)N1N=C(c2ccco2)CC1c1ccncc1` (centres undefined), the IC50 turned out to be 5.3 µM.
Still for that read-out and setting: the figure for `N#Cc1ccc(COc2cc(O)cc3oc4cc(O)c(O)cc4c(=O)c23)cc1` is 21.7 µM.
The molecule `O=c1cc(-c2ccc(F)cc2)oc2c1ccc1ccccc12` had an IC50 of 0.62 µM.
Take `N#CC1=C(N)Oc2c(c(=O)oc3ccccc23)C1c1cccs1` (centres undefined): the IC50 stood at 0.59 µM.
Same read-out and setting: the figure for `Cc1nc(-c2ccc(OCC(C)(C)C)c(C#N)c2)n(O)c1C(=O)O` is 6 µM; for `Cc1nc(-c2ccc(OCC(C)C)c(C#N)c2)sc1C(=O)O` [FEBUXOSTAT] it is 25 µM.

The target of the next data set is T1, Broad substrate specificity ATP-binding cassette transporter ABCG2 (Homo sapiens, UniProt Q9UNQ0).
T1 sequence (Q9UNQ0 whole entry): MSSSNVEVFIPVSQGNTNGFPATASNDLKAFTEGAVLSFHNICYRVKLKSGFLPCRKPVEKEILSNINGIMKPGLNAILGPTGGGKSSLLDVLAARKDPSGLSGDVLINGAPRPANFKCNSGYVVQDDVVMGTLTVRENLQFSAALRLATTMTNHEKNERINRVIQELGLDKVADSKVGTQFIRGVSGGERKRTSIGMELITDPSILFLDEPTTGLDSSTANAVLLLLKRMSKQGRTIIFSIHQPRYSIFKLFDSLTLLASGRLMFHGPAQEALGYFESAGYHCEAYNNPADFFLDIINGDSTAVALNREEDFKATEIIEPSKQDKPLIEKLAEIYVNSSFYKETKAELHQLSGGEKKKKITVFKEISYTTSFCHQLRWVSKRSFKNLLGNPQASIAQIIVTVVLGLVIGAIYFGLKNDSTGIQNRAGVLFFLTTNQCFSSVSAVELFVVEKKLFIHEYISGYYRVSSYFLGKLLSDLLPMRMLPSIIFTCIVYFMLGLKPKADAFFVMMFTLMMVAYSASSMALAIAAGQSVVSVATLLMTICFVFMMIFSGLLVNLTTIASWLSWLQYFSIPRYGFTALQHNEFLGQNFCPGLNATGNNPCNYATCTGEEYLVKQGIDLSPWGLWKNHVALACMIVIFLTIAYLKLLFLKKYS
Put plainly: Inhibition of ABCG2 (unknown origin).
Conditions: not given
`O=C(c1cc(Cl)c(O)c(Cl)c1)N1CS(=O)(=O)c2ccccc21` [DOTINURAD] showed an IC50 of 0.0372 µM.
